Consider 21 compounds from patent US9527805B2, “Small molecules as epigenetic modulators of lysine-specific demethylase 1 and methods of treating disorders” (priority 2010, dated 2016).

Experiment [1] relates to H3K4me2 in the P19 cell line. As to conditions: cited from earlier work.
For experiment [2], the system named is HCT116 human colon tumor xenograft. Put plainly: HCT116 human colon tumor xenograft model. The format is in vivo, athymic nu/nu Fox Chase mice. As to conditions: 2 mg/kg, 5 times a week over 38 days.
Procedure: Previously, various polyaminobiguanidides were evaluated in an HCT116 human colon tumor xenograft model in athymic nu/nu Fox Chase mice. Mice were treated with polyaminobiguanidides, 5-azacytidine (5-AC) or a combination of the two agents. Drugs were administered 5 times a week over a period of 38 days.
The test system of experiment [3] is H3K4me2. Nature of the experiment: H3K4me2 level by Western blotting of nuclear fractions. The format is cell-based. As to conditions: Homo sapiens. Here is the method: Synthetic H3K4me2 peptides were purchased from Millipore (Billerica, Mass.). Calu-6 cells were maintained in RPMI medium, both supplemented with 10% fetal bovine serum (Gemini Bio-Products, Woodland, Calif.) and grown at 37° C. in 5% CO2 atmosphere.
Cytoplasmic and nuclear fractions were prepared for Western blot analysis using the NE-PER™ Nuclear and Cytoplasmic Extraction Kit (Pierce, Rockford, Ill.). Primary antibodies against H3K4me2 were from Millipore. The pCNA monoclonal antibody was purchased from Oncogene Research Products (Cambridge, Mass.). Dye-conjugated secondary antibodies were used for quantification of Western blot results using the Odyssey Infrared Detection system and software (LI-COR Biosciences, Lincoln, Nebr.).

Experiment [4] concerns the target T1, recombinant human LSD1 (Homo sapiens, UniProt O60341).
T1 construct: Full-length human LSD1 cDNA was subcloned into the pET15b bacterial expression vector; 6xHis (N); made in house; host or cells: Escherichia coli BL21(DE3)
Put plainly: LSD1 demethylase assay, luminol-dependent chemiluminescence (H2O2 production), H3K4me2 (1-21 aa) peptide substrate. The format is biochemical. Particulars: compound at 10 μM. Here is the method: Full-length human LSD1 cDNA was subcloned into the pET15b bacterial expression vector (Novagen, Madison, Wis.) in frame with an N-terminal 6×HIS-tag and transformed into the BL21(DE3) strain of Escherichia coli. Following selection, expression and purification of recombinant LSD1 protein were performed as previously described. Briefly, expression of LSD1-HIS protein was induced by 1 mM IPTG for 6 h at 25° C. The HIS-tagged protein was purified using Ni-NTA affinity purification resin and column as recommended by the manufacturer (Qiagen, Valencia, Calif.). Bound protein was eluted by imidazole and the eluate was dialyzed in PBS at 4° C. Enzymatic activity of LSD1 was examined using luminol-dependent chemiluminescence to measure the production of H2O2, as previously described. In brief, LSD1 activity was assayed in 50 mM Tris, pH 8.5, 50 mM KCl, 5 mM MgCl, 5 nmol luminol, and 20 μg/ml horseradish peroxidase with the indicated concentrations of H3K4me2 (1-21 aa) peptide as substrate. The integral values were calibrated against standards containing known concentrations of H2O2, and the activities expressed as pmols H2O2/mg protein/min. Reaction mixtures were incubated with or without 5 μg purified LSD1 in 50 mM Tris, pH 8.5, 50 mM KCl, 5 mM MgCl, 0.5% BSA, and 5% glycerol for 3 hr at 37° C. This reaction mixture was analyzed by Western blotting using antibodies (Millipore) that specifically recognize the dimethyl group of H3K4.

The target of experiment [5] is recombinant LSD1/CoRest complex (Homo sapiens, UniProt O60341). Particulars: cited from earlier work.
The mark [6] stands for this setting: 24 h, read-out: H3K4me2 Fold Increase (24 h).
Setting [7] is: 48 h, read-out: H3K4me2 Fold Increase (48 h).

Where two headings read alike, the source gives them in different places.

Take `N[C@@H]1C[C@H]1c1ccccc1` (racemic) [tranylcypromine]: the “effect on global levels of H3K4me2 (in words)” value in experiment [1] is “increase global levels of H3K4me2”.
In the case of `Nc1ncn([C@@H]2O[C@H](CO)[C@@H](O)[C@H]2O)c(=O)n1` [Entry 5-AC, 5-azacytidine], the “reduction of tumor growth” value in experiment [2] is “about 50%”.
Take `O=C(O)CC(=O)Nc1ccccc1F` [Entry 33]: in experiment [3] (setting [6]), the fold induction at 5 µM came to 1.81 and the fold induction at 10 µM came out at 1.5. For the same compound, in experiment [3] (setting [7]), the fold induction at 5 µM was determined as 3.15 and the fold induction at 10 µM was determined as 1.09. Besides, the remaining activity at 10 µM in experiment [4] was determined as 98.2%.
With `O=C(O)CCC(=O)Nc1ccccc1F` [Entry 34], in experiment [4], the remaining activity at 10 µM was 92.6%.
The same measure, in the same setting: under `O=C(O)CCCC(=O)Nc1ccccc1F` [Entry 35] stands 100%.
On the same count and under the same terms, under `O=C(O)CCCCC(=O)Nc1ccccc1F` [Entry 36] stands 76.4%; under `O=C(O)CCCCCC(=O)Nc1ccccc1F` [Entry 37], 95.9%.
For the compound `COC(=O)[C@@H](N)CCCCNC(=O)CC(=O)Nc1ccccc1F` [Entry 38], in experiment [3] (setting [6]), the fold induction at 5 µM turned out to be 0.3 and the fold induction at 10 µM worked out at 0.2. For the same compound, in experiment [3] (setting [7]), the fold induction at 5 µM is 0.7 and the fold induction at 10 µM is 5.6. Also, the remaining activity at 10 µM in experiment [4] stood at 88.4%.
Consider `COC(=O)[C@H](CCCCNC(=O)NC(c1ccccc1)c1ccccc1)NC(=O)CC(=O)Nc1ccccc1F` [Entry 39], for which, in experiment [4], the remaining activity at 10 µM turned out to be 100%.
For the compound `COC(=O)[C@H](CCCCNC(=O)NCC(c1ccccc1)c1ccccc1)NC(=O)CC(=O)Nc1ccccc1F` [Entry 40], in experiment [4], the remaining activity at 10 µM came out at 100%.
For `COC(=O)[C@H](CCCCNC(=O)NCCC(c1ccccc1)c1ccccc1)NC(=O)CC(=O)Nc1ccccc1F` [Entry 41], in experiment [4], the remaining activity at 10 µM is 100%.
As to `COC(=O)[C@H](CCCCNC(=S)NC(c1ccccc1)c1ccccc1)NC(=O)CC(=O)Nc1ccccc1F` [Entry 42], in experiment [3] (setting [6]), the fold induction at 5 µM was found to be 49.1 and the fold induction at 10 µM came out at 60.6. Further, in experiment [3] (setting [7]), the fold induction at 5 µM came out at 0.5 and the fold induction at 10 µM was 3. Moreover, the remaining activity at 10 µM in experiment [4] stood at 100%.
Regarding `COC(=O)[C@H](CCCCNC(=S)NCC(c1ccccc1)c1ccccc1)NC(=O)CC(=O)Nc1ccccc1F` [Entry 43], in experiment [4], the remaining activity at 10 µM worked out at 100%.
On the same count and under the same terms, under `COC(=O)[C@H](CCCCNC(=S)NCCC(c1ccccc1)c1ccccc1)NC(=O)CC(=O)Nc1ccccc1F` [Entry 44] stands 100%.
Turning to `C#CCN(CC#C)CCCC[C@H](NC(=O)CC(=O)Nc1ccccc1F)C(=O)OC` [Entry 45], the remaining activity at 10 µM in experiment [4] came out at 84.1%.
For the compound `C#CCNCCCC[C@H](NC(=O)CC(=O)Nc1ccccc1F)C(=O)OC` [Entry 46], the remaining activity at 10 µM in experiment [4] stood at 90.4%.
Still for that read-out and setting: the value for `C#CCN(CC#C)CCCC[C@H](NC(=O)CCC(=O)Nc1ccccc1F)C(=O)OC` [Entry 47] was 92.4%; that for `C#CCN(CC#C)CCCC[C@H](NC(=O)CCCC(=O)Nc1ccccc1F)C(=O)OC` [Entry 48] was 100%.
With `C#CCN(CC#C)CCCC[C@H](NC(=O)CCCCC(=O)Nc1ccccc1F)C(=O)OC` [Entry 49], the remaining activity at 10 µM in experiment [4] was 100%.
`C#CCN(CC#C)CCCC[C@H](NC(=O)CCCCCC(=O)Nc1ccccc1F)C(=O)OC` [Entry 50]: the remaining activity at 10 µM in experiment [4] stood at 100%.
For the compound `NNCCc1ccccc1` [phenelzine], the “effect on nucleosomal demethylation (in words)” value in experiment [5] is “inactivate nucleosomal demethylation”. For the same compound, in experiment [1], the “effect on global levels of H3K4me2 (in words)” value was “increase global levels of H3K4me2”.
